Reference: ChEMBL document CHEMBL4616590, “Therapeutic significance of β-glucuronidase activity and its inhibitors: A review” (Eur J Med Chem, 2020)

Biological target: Beta-glucuronidase (Escherichia coli (strain K12), UniProt P05804)
Assay: Inhibition of Escherichia coli beta-glucuronidase
Settings: not given

Beta-glucuronidase (Escherichia coli (strain K12), UniProt P05804), sequence (P05804 whole entry): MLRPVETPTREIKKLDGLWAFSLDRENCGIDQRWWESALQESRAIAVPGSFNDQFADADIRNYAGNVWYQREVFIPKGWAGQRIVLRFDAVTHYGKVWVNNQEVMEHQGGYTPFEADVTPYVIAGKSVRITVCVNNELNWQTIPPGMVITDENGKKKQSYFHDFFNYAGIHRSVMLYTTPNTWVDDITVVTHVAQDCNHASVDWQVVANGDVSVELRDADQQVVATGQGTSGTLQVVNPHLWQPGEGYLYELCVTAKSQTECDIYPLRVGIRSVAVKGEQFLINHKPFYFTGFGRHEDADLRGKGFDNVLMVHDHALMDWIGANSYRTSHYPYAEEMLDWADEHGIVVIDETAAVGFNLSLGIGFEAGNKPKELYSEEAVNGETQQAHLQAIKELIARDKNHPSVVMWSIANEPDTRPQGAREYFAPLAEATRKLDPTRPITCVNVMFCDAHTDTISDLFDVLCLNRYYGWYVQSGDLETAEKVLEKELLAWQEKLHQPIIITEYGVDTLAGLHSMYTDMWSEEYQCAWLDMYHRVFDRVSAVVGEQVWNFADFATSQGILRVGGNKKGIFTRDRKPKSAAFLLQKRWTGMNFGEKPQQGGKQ

SMILES	IC50 [µM]
O=c1c(-c2ccc(O)cc2)coc2cc(O)ccc12 [DAIDZEIN]	1610
CC(C)=CC[C@]12Oc3cc(O)c([C@H]4C=C(C)C[C@H](c5ccc(O)cc5O)[C@H]4C(=O)c4ccc(O)cc4O)c(O)c3C(=O)[C@@]1(O)Oc1cc(O)ccc12	0.4
CC1(C)[C@@H](O[C@H]2O[C@H](C(=O)O)[C@@H](O)[C@H](O)[C@H]2O[C@@H]2O[C@H](C(=O)O)[C@@H](O)[C@H](O)[C@H]2O)CC[C@]2(C)[C@H]3C(=O)C=C4[C@@H]5C[C@@](C)(C(=O)O)CC[C@]5(C)CC[C@@]4(C)[C@]3(C)CC[C@@H]12 [GLYCYRRHIZIN]	12.1
CC(C)=CCc1c(-c2ccc(O)cc2O)oc2c([C@H]3C=C(C)C[C@@H](c4ccc(O)cc4O)[C@@H]3C(=O)c3ccc(O)cc3O)c(O)cc(O)c2c1=O [KUMANON G]	1.6
CO[C@@]1(CO)OCCC1=O	57

Tested on: not listed separately
Assay: Inhibition of Staphylococcus pasteuri beta-glucuronidase
Settings: not given

SMILES	IC50 [µM]
CC(C)=CC[C@]12Oc3cc(O)c([C@H]4C=C(C)C[C@H](c5ccc(O)cc5O)[C@H]4C(=O)c4ccc(O)cc4O)c(O)c3C(=O)[C@@]1(O)Oc1cc(O)ccc12	0.33
CC(C)=CCc1c(-c2ccc(O)cc2O)oc2c([C@H]3C=C(C)C[C@@H](c4ccc(O)cc4O)[C@@H]3C(=O)c3ccc(O)cc3O)c(O)cc(O)c2c1=O [KUMANON G]	0.98

Biological target: not listed separately
Assay: Inhibition of bovine liver beta-glucuronidase using 4-nitrophenyl b-D-glucuronopyranoside as substrate after 30 mins
Design: species or system Bos taurus
Settings: not given

SMILES	IC50 [µM]
O=C(O)[C@H]1NC(=O)[C@H](O)[C@@H](O)[C@@H]1O	31
O=C(O)[C@H]1NC(=O)[C@H](O)[C@@H](O)[C@H]1O	32
COC(=O)[C@]1(Cc2ccc(O)c(C=O)c2)OC(=O)C(O)=C1c1ccc(O)cc1	6.2
C[C@]12C=C/C(=N\O)C=C1CC[C@H]1[C@@H]3[C@@H](O)C[C@](C)(O)[C@@]3(C)CC[C@@H]12	49
O=C(O)[C@@H]1[C@@H](O)[C@H](O)[C@@H](O)c2nnnn21	25

Biological target: not listed separately
Assay: Inhibition of bovine liver beta-glucuronidase
Design: species or system Bos taurus
Settings: not given

SMILES	IC50 [µM]
O=C(O)[C@H]1NC[C@H](O)[C@@H](O)[C@H]1O	86
CC(=O)N[C@H]1NC[C@H](C(=O)O)[C@H](O)[C@@H]1O	0.065
Oc1ccccc1-c1nnc(-c2ccc(-c3nc4ccccc4s3)cc2)o1	4.38
c1ccc(-c2nnc(-c3ccc(-c4nc5ccccc5s4)cc3)o2)nc1	31.2
O=C(O)[C@H]1CN[C@H](N2C(=O)c3ccccc3C2=O)[C@@H](O)[C@H]1O	0.068
Clc1ccc(-c2nnc(-c3ccc(-c4nc5ccccc5s4)cc3)o2)cc1	1.64 to 15.4
CCCCCCCCC[C@@H]1NC[C@@H](O)[C@@H](O)[C@H](O)[C@H]1O	97
O[C@@H]1[C@@H](O)[C@H](O)[C@@]2(O)CC[C@@H]1N2	2.3
O=C(O)[C@@H]1[C@@H](O)[C@H](O)[C@@H](O)c2nccn21	12
O=C(O)[C@@H]1[C@@H](O)[C@H](O)[C@@]2(O)CC[C@@H]1N2	0.06
O=C(O)[C@H]1NC[C@H](O)[C@@H](O)[C@@H]1O	70
Oc1cccc(-c2nnc(-c3ccc(-c4nc5ccccc5s4)cc3)o2)c1	32.4
Fc1ccc(-c2nnc(-c3ccc(-c4nc5ccccc5s4)cc3)o2)cc1	8.56
CC(=O)N[C@H]1NC[C@](O)(C(=O)O)[C@H](O)[C@@H]1O	0.062

Biological target: not listed separately
Assay: Inhibition of bacterial beta-glucuronidase using 4-nitrophenyl beta-D-glucuronopyranoside as substrate
Design: species or system Bacteria
Settings: not given

SMILES	IC50 [µM]
COc1ccc(-c2nnc(Nc3ccc(Cl)c(Cl)c3)s2)cc1	22.6
O=C(O)[C@@H]1[C@@H](O)[C@H](O)[C@@]2(O)CC[C@@H]1N2	60

Tested on: not listed separately
Assay: Inhibition of Escherichia coli K-12 beta-glucuronidase using PNPG as substrate preincubated for 5 mins followed by substrate addition measured after 30 mins
Settings: not given

SMILES	IC50 [µM]
O=C(O)[C@@H](O)[C@H]1OC(=O)[C@H](O)[C@H]1O [D-SACCHARIC ACID 1,4-LACTONE]	36.1
O=c1cc(-c2ccc(O)cc2)oc2cc(O)c(O)c(O)c12 [SCUTELLAREIN]	5.76
O=c1c(O)c(-c2ccc(O)c(O)c2)oc2cc(O)cc(O)c12 [QUERCETIN]	5.76 to 29.6

Biological target: T1, Beta-glucuronidase (Homo sapiens) (UniProt P08236)
T1 sequence (whole entry): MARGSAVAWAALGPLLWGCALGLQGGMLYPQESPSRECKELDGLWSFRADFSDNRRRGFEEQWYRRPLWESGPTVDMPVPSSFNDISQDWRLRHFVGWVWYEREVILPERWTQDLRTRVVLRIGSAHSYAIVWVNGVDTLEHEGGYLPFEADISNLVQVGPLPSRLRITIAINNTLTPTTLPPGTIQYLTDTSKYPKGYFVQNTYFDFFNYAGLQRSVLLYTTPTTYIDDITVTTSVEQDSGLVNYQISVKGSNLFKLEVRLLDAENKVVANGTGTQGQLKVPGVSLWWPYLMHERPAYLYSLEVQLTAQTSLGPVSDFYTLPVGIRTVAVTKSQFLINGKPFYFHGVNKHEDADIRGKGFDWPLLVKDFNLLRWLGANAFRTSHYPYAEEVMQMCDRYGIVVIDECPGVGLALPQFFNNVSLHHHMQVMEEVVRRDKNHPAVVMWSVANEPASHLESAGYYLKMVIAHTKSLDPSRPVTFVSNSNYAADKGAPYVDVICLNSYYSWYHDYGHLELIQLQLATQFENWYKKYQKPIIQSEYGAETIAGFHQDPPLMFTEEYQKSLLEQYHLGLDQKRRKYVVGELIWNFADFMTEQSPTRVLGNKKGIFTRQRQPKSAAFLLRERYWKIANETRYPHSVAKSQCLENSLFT
Assay: Potency index, ratio of Silymarin IC50 to test compound IC50 for beta-glucuronidase (unknown origin)
Settings: not given

SMILES	Ratio IC50
O=c1c2cc(O)c(O)cc2oc2cc(O)c([C@@H]3O[C@H](CO)[C@@H](O)[C@H](O)[C@H]3O)c(O)c12	50
O=c1c(O)c(-c2ccc(O)cc2)oc2cc(O)cc(O)c12	76

Biological target: T1, Beta-glucuronidase (Homo sapiens)
Assay: Inhibition of whole human gut bacterial beta-glucuronidase relative to control
Settings: concentration not given here

SMILES	inhibition [%]
CC(C)=CC[C@]12Oc3cc(O)c([C@H]4C=C(C)C[C@H](c5ccc(O)cc5O)[C@H]4C(=O)c4ccc(O)cc4O)c(O)c3C(=O)[C@@]1(O)Oc1cc(O)ccc12	> 70
CC(C)=CCc1c(-c2ccc(O)cc2O)oc2c([C@H]3C=C(C)C[C@@H](c4ccc(O)cc4O)[C@@H]3C(=O)c3ccc(O)cc3O)c(O)cc(O)c2c1=O [KUMANON G]	> 70

Biological target: T2, Beta-glucuronidase (Rattus norvegicus) (UniProt P06760)
T2 sequence (whole entry): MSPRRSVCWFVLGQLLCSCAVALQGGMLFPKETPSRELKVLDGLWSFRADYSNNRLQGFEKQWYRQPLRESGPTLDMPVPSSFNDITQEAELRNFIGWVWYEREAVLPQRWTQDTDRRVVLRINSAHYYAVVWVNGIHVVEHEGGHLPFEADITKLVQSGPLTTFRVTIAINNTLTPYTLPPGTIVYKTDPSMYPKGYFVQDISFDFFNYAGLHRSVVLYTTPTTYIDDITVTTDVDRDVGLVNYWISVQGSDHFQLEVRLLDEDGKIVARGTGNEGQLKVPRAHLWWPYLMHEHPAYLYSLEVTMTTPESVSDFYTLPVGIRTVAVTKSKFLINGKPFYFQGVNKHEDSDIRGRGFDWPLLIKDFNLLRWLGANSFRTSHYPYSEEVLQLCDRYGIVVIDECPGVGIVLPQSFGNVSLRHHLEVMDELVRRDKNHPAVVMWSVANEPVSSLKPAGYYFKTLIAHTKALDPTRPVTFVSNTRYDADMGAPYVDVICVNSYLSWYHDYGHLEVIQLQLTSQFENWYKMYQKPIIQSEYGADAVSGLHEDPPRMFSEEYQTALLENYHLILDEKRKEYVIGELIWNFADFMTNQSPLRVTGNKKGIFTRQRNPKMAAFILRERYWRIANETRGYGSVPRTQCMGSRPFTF
Assay: Inhibition of rat neutrophils beta-glucuronidase at 100 uM relative to control
Settings: not given

SMILES	inhibition [%]
O=c1cc(-c2ccc(O)cc2O)oc2cc(O)cc(O)c12	67.7

Biological target: T3, Beta-glucuronidase (Rattus norvegicus, UniProt P06760)
T3 sequence (P06760 whole entry): T2 sequence (whole entry)
Assay: Inhibition of rat liver beta-glucuronidase
Settings: not given

SMILES	IC50 [µM]
O=c1c(-c2ccc(O)cc2)coc2cc(O)ccc12 [DAIDZEIN]	1970
CC1(C)[C@@H](O[C@H]2O[C@H](C(=O)O)[C@@H](O)[C@H](O)[C@H]2O[C@@H]2O[C@H](C(=O)O)[C@@H](O)[C@H](O)[C@H]2O)CC[C@]2(C)[C@H]3C(=O)C=C4[C@@H]5C[C@@](C)(C(=O)O)CC[C@]5(C)CC[C@@]4(C)[C@]3(C)CC[C@@H]12 [GLYCYRRHIZIN]	97.2

Biological target: not listed separately
Assay: Inhibition of bovine liver beta-glucuronidase using 4-nitrophenyl beta-D-glucuronopyranoside as substrate preincubated for 30 mins followed by substrate addition measured after 10 to 20 mins by e Lineweaver-Burk plot analysis
Design: species or system Bos taurus
Settings: not given

SMILES	Ki [µM]
O=C(O)[C@@H]1[C@@H](O)[C@H](O)[C@@H](O)c2nccn21	0.012
O=C(O)[C@@H]1[C@@H](O)[C@H](O)[C@@H](O)c2nnnn21	0.025
